Assay results reported in ChEMBL document CHEMBL5143521, “Identification of a selective BRD4 PROTAC with potent antiproliferative effects in AR-positive prostate cancer based on a dual BET/PLK1 inhibitor” (Eur J Med Chem, 2022).
Activity calls are given as the source filed them. No cut-off for these calls is given here.

Key:
CWR22R [1] = test: Induction of cell cycle arrest in AR-positive human 22Rv1 cells assessed as downregulation of cyclin D1 expression at 100 to 1000 nM measured after 72 hrs by Western blot analysis; format: functional, cell-based; settings: dose 100-1000 nM
CWR22R [2] = test: Induction of cell cycle arrest in AR-positive human 22Rv1 cells assessed as downregulation of cyclin B1 expression at 100 to 1000 nM measured after 72 hrs by Western blot analysis; format: functional, cell-based; settings: dose 100-1000 nM
CWR22R [3] = test: Downregulation of c-Myc […] expression level in AR-positive human 22Rv1 cells at 1 nM by Western blot analysis; format: functional, cell-based; settings: time 2-48 hrs, TDE = time-dependent effect
VCaP [4] = test: Downregulation of c-Myc […] expression level in AR-positive human VCaP cells measured after 24 hrs by Western blot analysis; format: functional, cell-based; settings: dose 1-10000 nM, DDE = dose-dependent effect
LNCaP [5] = test: Downregulation of c-Myc […] expression level in AR-positive harmone sensitive human LNCaP cells at 1 nM by Western blot analysis; format: functional, cell-based; settings: time 2-48 hrs, TDE = time-dependent effect
CWR22R [6] = test: Induction of cell cycle arrest in AR-positive human 22Rv1 cells assessed as downregulation of CDK4 expression at 100 to 1000 nM measured after 72 hrs by Western blot analysis; format: functional, cell-based; settings: dose 100-1000 nM
CWR22R [7] = test: Induction of cell cycle arrest in AR-positive human 22Rv1 cells assessed as downregulation of CDK6 expression at 100 to 1000 nM measured after 72 hrs by Western blot analysis; format: functional, cell-based; settings: dose 100-1000 nM
CWR22R [8] = test: Downregulation of c-Myc […] expression level in AR-positive human 22Rv1 cells measured after 24 hrs by Western blot analysis; format: functional, cell-based; settings: dose 1-10000 nM, DDE = dose-dependent effect
[9] = biological target: T1, Protein cereblon/Bromodomain-containing protein 4 (Homo sapiens) (UniProt O60885+Q96SW2); test: Protac activity at BRD4/CRBN in AR-positive human VCaP cells assessed as degradation of BRD4 at 1 uM measured after 24 hrs in presence of MLN4924 by Western blot analysis; format: cell-based
CWR22R [10] = test: Induction of apoptosis in AR-positive human 22Rv1 cells assessed as upregulation of cleaved caspase-3 level measured after 72 hrs by Annexin V-FITC/PI staining based flow cytometry method; format: functional, cell-based; settings: dose 100-1000 nM, DDE = dose-dependent effect
[11] = biological target: T1, Protein cereblon/Bromodomain-containing protein 4 (Homo sapiens); test: Protac activity at BRD4/CRBN in AR-positive human VCaP cells assessed as degradation of BRD4 by measuring downregulation of BRD4 expression level at 1 nM by Western blot analysis; format: cell-based; settings: time 2-48 hrs, TDE = time-dependent effect
VCaP [12] = test: Downregulation of PSA protein expression in AR-positive human VCaP cells at 100 nM measured after 48 hrs by Western blot analysis; format: functional, cell-based
VCaP [13] = test: Downregulation of ERG gene expression in AR-positive human VCaP cells at 100 nM measured after 24 hrs by RT-qPCR analysis; format: functional, cell-based
VCaP [14] = test: Downregulation of c-Myc mRNA expression level in AR-positive human VCaP cells at 100 nM measured after 24 hrs by RT-qPCR analysis; format: functional, cell-based
VCaP [15] = test: Downregulation of TMPRSS2 gene expression in AR-positive human VCaP cells at 100 nM measured after 24 hrs by RT-qPCR analysis; format: functional, cell-based
[16] = biological target: Serine/threonine-protein kinase PLK1 (Homo sapiens, UniProt P53350); test: Inhibition of recombinant full length human PLK1 using casein as substrate incubated for 40 mins in presence of [gamma-33P]-ATP by radiometric scintillation counting method
CWR22R [17] = test: Induction of cell cycle arrest in AR-positive human 22Rv1 cells assessed as downregulation of CDK2 expression at 100 to 1000 nM measured after 72 hrs by Western blot analysis; format: functional, cell-based; settings: dose 100-1000 nM
[18] = biological target: T1, Protein cereblon/Bromodomain-containing protein 4 (Homo sapiens); test: Protac activity at BRD4/CRBN in AR-positive human 22Rv1 cells assessed as degradation of BRD4 by measuring downregulation of BRD4 expression level measured after 24 hrs by Western blot analysis; format: cell-based; settings: dose 1-10000 nM, DDE = dose-dependent effect
VCaP [19] = test: Downregulation of PSA gene expression in AR-positive human VCaP cells at 100 nM measured after 24 hrs by RT-qPCR analysis; format: functional, cell-based
VCaP [20] = test: Downregulation of FKBP5 gene expression in AR-positive human VCaP cells at 100 nM measured after 24 hrs by RT-qPCR analysis; format: functional, cell-based
VCaP [21] = test: Downregulation of c-Myc […] expression level in AR-positive human VCaP cells at 1 nM by Western blot analysis; format: functional, cell-based; settings: time 2-48 hrs, TDE = time-dependent effect
VCaP [22] = test: Downregulation of AR protein expression in AR-positive human VCaP cells at 100 nM measured after 48 hrs by Western blot analysis; format: functional, cell-based
CWR22R [23] = test: Induction of cell cycle arrest in AR-positive human 22Rv1 cells assessed as downregulation of cyclin E expression at 100 to 1000 nM measured after 72 hrs by Western blot analysis; format: functional, cell-based; settings: dose 100-1000 nM
CWR22R [24] = test: Antiproliferative activity against AR-positive human 22Rv1 cells assessed as reduction in cell viability measured after 4 days by MTT assay; format: functional, cell-based; settings: 22Rv1, 96 h
CWR22R [25] = test: Induction of apoptosis in AR-positive human 22Rv1 cells assessed as increase in late apoptotic cells measured after 72 hrs by Annexin V-FITC/PI staining based flow cytometry method; format: functional, cell-based; settings: dose 100-1000 nM, DDE = dose-dependent effect
CWR22R [26] = test: Antiproliferative activity against AR-positive human 22Rv1 cells assessed as reduction in cell viability at 100 to 300 nM incubated for 3 days followed by compound washout and measured after 8 days; format: functional; settings: dose 100-300 nM, time 3 day
[27] = biological target: T1, Protein cereblon/Bromodomain-containing protein 4 (Homo sapiens); test: Protac activity at BRD4/CRBN in AR-positive human 22Rv1 cells assessed as degradation of BRD4 by measuring downregulation of BRD4 expression level at 1 nM by Western blot analysis; format: cell-based; settings: time 2-48 hrs, TDE = time-dependent effect
[28] = biological target: T1, Protein cereblon/Bromodomain-containing protein 4 (Homo sapiens); test: Protac activity at BRD4/CRBN in AR-negative human castration resistant DU-145 cells assessed as degradation of BRD4 by measuring downregulation of BRD4 expression level measured after 24 hrs by Western blot analysis; format: cell-based; settings: dose 1-10000 nM, DDE = dose-dependent effect
[29] = biological target: T1, Protein cereblon/Bromodomain-containing protein 4 (Homo sapiens); test: Protac activity at BRD4/CRBN in AR-negative human castration resistant DU-145 cells assessed as degradation of BRD4 by measuring downregulation of BRD4 expression level at 1 nM by Western blot analysis; format: cell-based; settings: time 2-48 hrs, TDE = time-dependent effect
MV4-11 = test: Antiproliferative activity against human MV4-11 cells assessed as reduction in cell viability measured after 4 days by MTT assay; format: functional, cell-based; settings: MV4-11, 96 h
CWR22R [30] = test: Induction of cell cycle arrest in AR-positive human 22Rv1 cells assessed as accumulation of cells at G0/G1 phase at 100 to 1000 nM measured after 72 hrs by flow cytometry analysis; format: functional, cell-based; settings: dose 100-1000 nM
[31] = biological target: Bromodomain-containing protein 4 (Homo sapiens, UniProt O60885); test: Inhibition of BRD4 (unknown origin) by alpha-screen assay
VCaP [32] = test: Inhibition of c-Myc expression level in human VCap cells at 10 nM incubated for 24 hrs by immunoblotting analysis; format: functional, cell-based
DU-145 = test: Antiproliferative activity against AR-negative human castration resistant DU-145 cells assessed as reduction in cell viability measured after 4 days by MTT assay; format: functional, cell-based; settings: DU-145, 96 h
LNCaP [33] = test: Antiproliferative activity against AR-positive harmone sensitive human LNCaP cells assessed as reduction in cell viability at 100 to 300 nM incubated for 3 days followed by compound washout and measured after 8 days; format: functional; settings: dose 100-300 nM, time 3 day

T1 sequence (Q96SW2 whole entry, looked up, other chains not shown): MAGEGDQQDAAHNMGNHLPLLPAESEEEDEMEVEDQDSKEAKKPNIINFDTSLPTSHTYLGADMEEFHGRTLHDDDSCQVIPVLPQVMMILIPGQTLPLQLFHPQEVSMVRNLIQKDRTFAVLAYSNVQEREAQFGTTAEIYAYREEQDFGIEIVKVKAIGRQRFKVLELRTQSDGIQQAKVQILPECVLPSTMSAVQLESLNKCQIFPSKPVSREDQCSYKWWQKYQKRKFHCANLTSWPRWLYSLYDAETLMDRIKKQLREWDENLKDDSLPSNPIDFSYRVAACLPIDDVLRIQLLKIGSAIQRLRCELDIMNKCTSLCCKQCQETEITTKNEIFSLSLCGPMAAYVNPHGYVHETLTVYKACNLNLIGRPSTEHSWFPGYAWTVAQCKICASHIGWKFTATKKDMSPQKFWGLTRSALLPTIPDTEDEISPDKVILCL
Sequence of Serine/threonine-protein kinase PLK1 (P53350 whole entry): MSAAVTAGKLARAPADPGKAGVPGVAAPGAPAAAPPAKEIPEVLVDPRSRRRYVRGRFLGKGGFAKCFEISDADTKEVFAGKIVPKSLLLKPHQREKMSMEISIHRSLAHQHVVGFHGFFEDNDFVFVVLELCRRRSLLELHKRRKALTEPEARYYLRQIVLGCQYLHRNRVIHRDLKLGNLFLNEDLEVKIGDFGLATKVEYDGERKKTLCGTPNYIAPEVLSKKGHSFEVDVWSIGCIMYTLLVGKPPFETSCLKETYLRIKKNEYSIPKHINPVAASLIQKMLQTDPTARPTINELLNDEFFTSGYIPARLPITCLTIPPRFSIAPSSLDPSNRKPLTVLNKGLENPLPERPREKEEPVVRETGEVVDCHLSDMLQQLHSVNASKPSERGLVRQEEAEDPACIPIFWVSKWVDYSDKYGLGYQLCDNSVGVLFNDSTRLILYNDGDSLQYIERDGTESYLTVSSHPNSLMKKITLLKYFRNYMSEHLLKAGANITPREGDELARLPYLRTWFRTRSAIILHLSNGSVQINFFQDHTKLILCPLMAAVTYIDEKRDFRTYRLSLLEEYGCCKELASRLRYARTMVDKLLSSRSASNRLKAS

## CC[C@@H]1c2nnc(C)n2-c2cnc(Nc3ccc(C(=O)NC4CCN(C(=O)COc5cccc6c5C(=O)N(C5CCC(=O)NC5=O)C6=O)CC4)cc3OC)nc2N1CC1CCCCC1 (stereo not given in full)
CWR22R [1]
  Activity: Active
CWR22R [2]
  Activity: Active
CWR22R [3]
  Activity: Tde
VCaP [4]
  Activity: Dde
LNCaP [5]
  Activity: Tde
CWR22R [6]
  Activity: Active
CWR22R [7]
  Activity: Active
CWR22R [8]
  Activity: Dde
[9]
  Activity: Active
CWR22R [10]
  Activity: Dde
[11]
  Activity: Tde
VCaP [12]
  Activity: Active
VCaP [13]
  Activity: Active
VCaP [14]
  Activity: Active
VCaP [15]
  Activity: Active
[16]
  IC50: 985 nM
CWR22R [17]
  Activity: Active
[18]
  Activity: Dde
VCaP [19]
  Activity: Active
VCaP [20]
  Activity: Active
VCaP [21]
  Activity: Tde
VCaP [22]
  Activity: Active
CWR22R [23]
  Activity: Active
CWR22R [24]
  IC50: 53 nM
CWR22R [25]
  Activity: Dde
CWR22R [26]
  inhibition (INH): 100%
[27]
  Activity: Tde
[28]
  Activity: Dde
[29]
  Activity: Tde
MV4-11
  IC50: 3 nM
CWR22R [30]
  Activity: Active
[31]
  IC50: 254 nM
VCaP [32]
  inhibition: Active
DU-145
  IC50: 10000 nM
LNCaP [33]
  inhibition (INH): 100%
